The text below walks through data of patent publication US20230041743A1, “1,8-NAPHTHYRIDIN-2-ONE COMPOUNDS FOR THE TREATMENT OF AUTOIMMUNE DISEASE” (Hoffmann-La Roche Inc., priority 2019, published 2023).

One data set addresses T1, human TLR7 (Homo sapiens, UniProt Q9NYK1).
T1 construct: host or cells: HEK293 (HEK-Blue hTLR7)
T1 sequence (Q9NYK1 27-1049): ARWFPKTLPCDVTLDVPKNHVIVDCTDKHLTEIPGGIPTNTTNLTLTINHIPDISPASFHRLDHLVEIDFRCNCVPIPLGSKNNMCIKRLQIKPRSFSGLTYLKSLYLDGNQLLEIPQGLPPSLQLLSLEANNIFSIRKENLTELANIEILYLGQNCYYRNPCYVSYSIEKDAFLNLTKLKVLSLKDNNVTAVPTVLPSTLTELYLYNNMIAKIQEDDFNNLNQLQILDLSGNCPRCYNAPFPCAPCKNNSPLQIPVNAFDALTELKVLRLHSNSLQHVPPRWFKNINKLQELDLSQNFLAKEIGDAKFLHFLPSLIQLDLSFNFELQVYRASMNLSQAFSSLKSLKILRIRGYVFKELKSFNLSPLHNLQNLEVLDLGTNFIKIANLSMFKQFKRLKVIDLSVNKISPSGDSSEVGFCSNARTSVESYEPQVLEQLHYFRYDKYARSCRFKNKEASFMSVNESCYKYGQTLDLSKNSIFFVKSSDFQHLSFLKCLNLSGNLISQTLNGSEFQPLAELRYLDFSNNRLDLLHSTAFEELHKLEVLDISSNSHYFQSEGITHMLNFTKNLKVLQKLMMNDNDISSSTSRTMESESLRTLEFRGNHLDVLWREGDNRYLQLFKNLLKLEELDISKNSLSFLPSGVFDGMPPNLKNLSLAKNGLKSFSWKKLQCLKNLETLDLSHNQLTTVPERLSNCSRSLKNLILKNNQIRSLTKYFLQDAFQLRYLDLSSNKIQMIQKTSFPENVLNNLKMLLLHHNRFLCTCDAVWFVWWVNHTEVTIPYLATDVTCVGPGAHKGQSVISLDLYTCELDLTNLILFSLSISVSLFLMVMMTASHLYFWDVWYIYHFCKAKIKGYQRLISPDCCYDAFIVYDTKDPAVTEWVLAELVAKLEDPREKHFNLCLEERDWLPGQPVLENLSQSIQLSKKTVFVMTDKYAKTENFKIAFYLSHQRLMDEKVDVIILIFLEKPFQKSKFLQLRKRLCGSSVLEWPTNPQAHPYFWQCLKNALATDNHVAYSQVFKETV
Put plainly: HEK293-Blue-hTLR-7 cells assay (SEAP reporter, R848 stimulation). Conditions: HEK293-Blue-hTLR7 cells, R848 ligand, 20 hrs incubation; read-out: HEK/hTLR7 IC50. The class given is cell-based. The source says: HEK293-Blue-hTLR-7 Cells Assay:
A stable HEK293-Blue-hTLR-7 cell line was purchased from InvivoGen (Cat. #: hkb-htlr7, San Diego, Calif., USA). These cells were originally designed for studying the stimulation of human TLR7 by monitoring the activation of NF-κB. A SEAP (secreted embryonic alkaline phosphatase) reporter gene was placed under the control of the IFN-β minimal promoter fused to five NF-κB and AP-1-binding sites. The SEAP was induced by activating NF-κB and AP-1 via stimulating HEK-Blue hTLR7 cells with TLR7 ligands. Therefore the reporter expression was declined by TLR7 antagonist under the stimulation of a ligand, such as R848 (Resiquimod), for incubation of 20 hrs. The cell culture supernatant SEAP reporter activity was determined using QUANTI-Blue™ kit (Cat. #: rep-qb1, Invivogen, San Diego, Ca, USA) at a wavelength of 640 nm, a detection medium that turns purple or blue in the presence of alkaline phosphatase.
HEK293-Blue-hTLR7 cells were incubated at a density of 250,000-450,000 cells/mL in a volume of 170 μL in a 96-well plate in Dulbecco's Modified Eagle's medium (DMEM) containing 4.5 g/L glucose, 50 U/mL penicillin, […], […], 2 mM L-glutamine, 10% (v/v) heat-inactivated fetal bovine serum with addition of 20 μL test compound in a serial dilution in the presence of final DMSO at 1% and 10 μL of 20 uM R848 in above DMEM, perform incubation under 37° C. in a CO2 incubator for 20 hrs. Then 20 μL of the supernatant from each well was incubated with 180 μL Quanti-blue substrate solution at 37° C. for 2 hrs and the absorbance was read at 620˜655 nm using a spectrophotometer. The signaling pathway that TLR7 activation leads to downstream NF-κB activation has been widely accepted, and therefore similar reporter assay was modified for evaluating TLR7 antagonist.

A short description of data set [1]: Human microsomal stability assay. The class given is in vitro ADME. Conditions: human liver microsomes, 1 μM test compound, 0.5 mg/mL protein, 37° C.; low <7.0, medium 7.0-16.2, high 16.2-23.2. As to the method: Human Microsomal Stability Assay
Human liver microsomes (Cat. NO.: 452117, Corning, USA) were preincubated with test compound for 10 minutes at 37° C. in 100 mM potassium phosphate buffer, pH 7.4. The reactions were initiated by adding NADPH regenerating system. The final incubation mixtures contained 1 μM test compound, 0.5 mg/mL liver microsomal protein, 1 mM MgCl2, 1 mM NADP, 1 unit/mL isocitric dehydrogenase and 6 mM isocitric acid in 100 mM potassium phosphate buffer, pH 7.4. After incubation times of 0, 3, 6, 9, 15 and 30 minutes at 37° C., 300 μL of cold ACN (including internal standard) was added to 100 μL incubation mixture to terminate the reaction. Following precipitation and centrifugation, 100 uL supernatant will be taken out and added 300 uL water.
The amount of compound remaining in the samples was determined by LC-MS/MS. Controls of no NADPH regenerating system at zero and 30 minutes were also prepared and analyzed. The results were categorized as: low (<7.0 mL/min/kg), medium (7.0-16.2 mL/min/kg) and high (16.2-23.2 mL/min/kg).

pIC50: −log10 of the molar value.

Turning to `C[C@@H]1CN(c2cc(=O)n(C)c3ncccc23)C[C@@H]2c3ccc([C@H]4C[C@H]5COC[C@@H](C4)N5)cc3CN12` [Example 28A, 4-[(4R,10bS)-4-methyl-8-(endo-3-oxa-9-azabicyclo[3.3.1]nonan-7-yl)-3,4,6,10b-tetrahydro-1H-pyrazino[2,1-a]isoindol-2-yl]-1-methyl-1,8-naphthyridin-2-one], the pIC50 at human TLR7 is 8.14. Also, the “CL (h)” value in data set [1] is 9.2 mL/min/kg.

Turning to `CCn1c(=O)cc(N2C[C@@H](C)N3Cc4cc(N5C[C@@H](N)[C@H](OC)C5)ccc4[C@H]3C2)c2cccnc21` [Example 29, 4-[(4R,10bS)-8-[(3R,4R)-3-amino-4-methoxy-pyrrolidin-1-yl]-4-methyl-3,4,6,10b-tetrahydro-1H-pyrazino[2,1-a]isoindol-2-yl]-1-ethyl-1,8-naphthyridin-2-one], the pIC50 on human TLR7 is 7.07. Further, the “CL (h)” value in data set [1] is listed as 6.4 mL/min/kg.
